The source of these data is publication PMC6934184, “Selective DNA-PKcs inhibition extends the therapeutic index of localized radiotherapy and chemotherapy” (The Journal of Clinical Investigation, 2019).

What is called inhibition is the drop in the measured response relative to a control, in per cent.

In this experiment the target is T1, STK25 (YSK1) (Homo sapiens, UniProt O00506).
T1 construct: purchased Thermo Fisher Scientific (Life Technologies) SelectScreen
As to the kind of experiment: SelectScreen Z'LYTE. The experiment is classed as biochemical. In outline:
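NU5455 was profiled across the SelectScreen Broad panel of kinase activity and binding assays. Z'LYTE reactions such as CSF1R ran at apparent Km ATP, while the Adapta CAMK1 assay used ATP listed as 10. Values are given as percent.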

T1 sequence (O00506 whole entry): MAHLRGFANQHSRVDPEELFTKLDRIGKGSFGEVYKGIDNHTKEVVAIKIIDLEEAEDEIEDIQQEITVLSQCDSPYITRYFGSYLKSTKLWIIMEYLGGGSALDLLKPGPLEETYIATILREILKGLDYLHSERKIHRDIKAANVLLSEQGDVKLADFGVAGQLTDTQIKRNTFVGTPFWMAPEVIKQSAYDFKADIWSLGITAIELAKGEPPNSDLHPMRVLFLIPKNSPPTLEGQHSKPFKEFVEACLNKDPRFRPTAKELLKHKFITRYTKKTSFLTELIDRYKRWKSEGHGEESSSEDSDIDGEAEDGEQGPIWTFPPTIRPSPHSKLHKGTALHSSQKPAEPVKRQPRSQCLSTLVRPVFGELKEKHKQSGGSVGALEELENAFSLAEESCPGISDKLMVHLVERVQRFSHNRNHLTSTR

As to `CN(C(=O)CN1CCOCC1)c1ccc2sc3c(-c4cccc5c(=O)cc(N6CC7CCC(C6)O7)oc45)cccc3c2c1` [NU5455], the inhibition at 1 µM is -11.4%.
